Measurements from PubChem BioAssay (NCI).
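Five compound concentrations were applied to cells in 96-well plates for 48 hours; endpoints were derived by simple linear interpolation of the resulting dose-response curve. At the TGI there is no net growth.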

Experiments:
Assay in all cases: inhibition of tumour cell growth, NCI panel, 48 h
[1] = system: MDA-MB-435
[2] = system: HOP-62 NSCLC
[3] = system: HCT-116 colon
[4] = system: NCI-H226 lung
[5] = system: SK-MEL-28 melanoma
[6] = system: OVCAR-4 ovarian
[7] = system: KM12 colon
[8] = system: UACC-62 melanoma
[9] = system: SK-OV-3 ovarian
[10] = system: MDA-N
[11] = system: M14 melanoma
[12] = system: NCI-H23 lung
[13] = system: NCI-H522 lung
[14] = system: 786-0 renal
[15] = system: K-562 leukemia
[16] = system: HS 578T breast
[17] = system: EKVX NSCLC
[18] = system: MDA-MB-231 breast
[19] = system: DU-145 prostate
[20] = system: T-47D breast

Measured: TGI

CCOC(=O)/C(C[C@H]1OC(C)(C)O[C@@H]1[C@H]1COC(C)(C)O1)=N/O
> 100 µM: [1] | [2] | [3] | [4] | [5] | [6] | [7] | [8] | [9] | [10] | [11] | [12] | [13] | [14] | [15] | [16] | [17] | [18] | [19]

CCNc1nc2c(ncn2C2CC(O)C(COP(=O)(O)O)O2)c(=O)[nH]1 (configuration not stated)
> 100 µM: [1] | [2] | [3] | [4] | [5] | [6] | [7] | [8] | [9] | [10] | [11] | [20] | [12] | [13] | [14] | [16] | [17] | [18] | [19]

O=C(O)C1(Cc2ccc3c(c2)CCC3)Cc2ccccc2C1=O (configuration not stated)
> 100 µM: [1] | [2] | [3] | [4] | [5] | [6] | [7] | [8] | [9] | [10] | [11] | [20] | [12] | [14] | [15] | [16] | [17] | [18] | [19]

O=C(NCCNCCNC(=O)C(F)(F)F)C(F)(F)F
> 100 µM: [1] | [2] | [3] | [4] | [5] | [6] | [7] | [8] | [9] | [10] | [11] | [20] | [12] | [14] | [15] | [16] | [17] | [18] | [19]

CC(C)c1cccc(C(=O)NCCN(C)C)c1[N+](=O)[O-]
> 100 µM: [1] | [2] | [3] | [4] | [5] | [7] | [8] | [9] | [10] | [11] | [20] | [12] | [13] | [14] | [15] | [16] | [18] | [19]

CC(=O)N/N=C1/CC[C@@]2(C)C(=CC[C@H]3C4CCC(C(C)CCCC(C)C)[C@@]4(C)CCC32)C1(C)C (some centres not stated)
> 100 µM: [1] | [2] | [3] | [4] | [5] | [6] | [7] | [8] | [9] | [11] | [20] | [12] | [13] | [14] | [15] | [16] | [17] | [19]
